{"source": "patent US20140088056A1", "about": "“CARDIAC GLYCOSIDES ARE POTENT INHIBITORS OF INTERFERON-BETA GENE EXPRESSION” (priority 2010, published 2014)", "key": {"IFNβ promoter [1]": {"system": "IFNβ promoter", "experiment": "cells", "format": "cell-based, human"}, "[2]": {"system": "PRDIII/I element of the IFNβ promoter", "format": "cell-based, human", "conditions": "1 uM, compared with no drug treatment"}, "[3]": {"system": "PRDII element of the IFNβ promoter", "format": "cell-based, human", "conditions": "1 uM, compared with no drug treatment"}, "[4]": {"system": "PRDIV element of the IFNβ promoter", "format": "cell-based, human", "conditions": "absence of virus infection"}, "[5]": {"system": "virus inducible genes in 293T cells", "experiment": "Microarray and RT-PCR of gene expression in 293T cells treated with bufalin and/or SeV", "format": "cell-based, human"}, "Namalwa cells": {"system": "Namalwa cells", "experiment": "RT-PCR of virus induced IFNβ gene expression in Namalwa cells", "format": "cell-based, human"}, "Hela and MG63 cells": {"system": "Hela and MG63 cells", "experiment": "RT-PCR of IFNβ gene induction in Hela and MG63 cells", "format": "cell-based, human"}, "IFNβ promoter [6]": {"system": "IFNβ promoter", "experiment": "IFNβ reporter induced by over-expression of RIG-I, MAVS or TBK1 in 293T cells", "format": "cell-based, human"}, "MEFs": {"system": "MEFs", "experiment": "RT-PCR of IFNβ induction in mouse embryonic fibroblasts (MEFs)", "format": "cell-based", "conditions": "1 uM; SeV, dsRNA, dsDNA", "from_the_text": "As discussed above, the mouse ATP1a1 protein is not sensitive to cardiac glycoside binding."}, "[7]": {"system": "PRDII element (NFkB binding site)", "format": "cell-based, human", "conditions": "bufalin and TNF 24 hrs"}, "[8]": {"system": "endogenous TNF target genes", "experiment": "RT-PCR of TNF induced gene expression in 293T cells", "format": "cell-based, human", "conditions": "6 hrs"}, "IFN signaling": {"system": "IFN signaling", "experiment": "IFN induced gene expression in Hela cells", "format": "cell-based, human", "conditions": "1 μM"}, "LPS signaling": {"system": "LPS signaling", "experiment": "LPS induced gene expression in THP-1 cells", "format": "cell-based, human", "conditions": "1 μM"}, "MAP kinase P42/p44": {"system": "MAP kinase P42/p44", "experiment": "EGF induced phosphorylation of MAP kinase in 293T cells", "format": "cell-based, human", "conditions": "1 μM"}, "293T cells [9]": {"system": "293T cells", "experiment": "CellTiter-Blue and CellTiter-Glo viability assays", "format": "cell-based, human", "conditions": "1 nM to 10 μM, 8 hours", "experimental": "(§1) The cells were also exposed to 0.1% Triton X-100 for 1 hr before the viability assay as a control (FIG. 16E). Data represent mean values±s.d. (n=3). […] Cells were harvested and washed, then stained with Allophycocyanin (APC) conjugated Annexin V and 7-AAD for 15 minutes and subjected to flow cytometry analysis. The number in each graph is the percentile of Annexin V or 7-AAD positive populations. […] Total protein lysates were prepared and separated on SDS-PAGE for Western blot analysis of PARP1, cleaved PARP1, cleaved Caspase3, LC3B, ATP1a1, and beta-actin expression.\n8 hours later, 20 μl of the CellTiter-Blue reagent (Promega) was added to each well and incubated for two more hours at 37° C. Fluorescence was recorded from 560 nm excitation/590 nm emission with a Spectramax Plus 384 plate reader. For CellTiter-Glo Luminescent viability assay, […] reagent (Promega) was added to each well and mixed, and incubated for 10 minutes at room temperature. Luminescence was measured with an Analyst AD plate reader."}, "293T cells [10]": {"system": "293T cells", "experiment": "Flow cytometry analysis of apoptosis (Annexin V / 7-AAD)", "format": "cell-based, human", "conditions": "bufalin 1 μM 8 hours; staurosporine 4 μM 4 hours", "experimental": "as §1\nTreated cells and untreated control cells were harvested and washed with PBS, and stained with APC conjugated Annexin V and 7-AAD (both from BD Biosciences) in Annexin V binding buffer (10 mM HEPES, pH 7.4, 140 mM NaCl, 2.5 mM CaCl2) for 15 minutes at room temperature, and then subjected to flow cytometry analysis on a FACSCalibur (BD Biosciences).\nCells were harvested and washed, then stained with Allophycocyanin (APC) conjugated Annexin V and 7-AAD for 15 minutes and subjected to flow cytometry analysis. […] 11 for sturosporine."}, "293T cells [11]": {"system": "293T cells", "experiment": "Western blot analysis of apoptosis and autophagy", "format": "cell-based, human", "conditions": "8 hours, bufalin 1 nM to 10 μM, staurosporine 4 μM", "experimental": "as §1\nApoptosis and autophagy were also analyzed by Western blots. […] Total protein lysates were prepared and separated on SDS-PAGE for Western blot analysis of PARP1, cleaved PARP1, cleaved Caspase3, LC3B, ATP1a1, and beta-actin expression."}, "[12]": {"system": "cytoplasmic RNA polymerase III", "experiment": "Re-transfection of RNA from dsDNA transfected, bufalin treated 293T cells", "format": "cell-based, human", "experimental": "Total RNA from these cells were extracted and re-transfected into fresh 293T cells (8 ug for 2 million cells) for 6 hrs, the induction of IFNβ and Cxcl10 genes from these samples were analyzed by RT-PCR.\nFurthermore, RIG-I can also be the target in the dsDNA activation pathway. […] This was achieved through a critical sensor: RNA polymerase III, which transcribes 5′-ppp bearing “panhandle” RNA from the dsDNA template, these nascent RNAs then activated the IFNb expression through the RIG-1-MAVS pathway. See, for example, Ablasser, A. et al. RIG-I-dependent sensing of poly(dA:dT) through the induction of an RNA polymerase III-transcribed RNA intermediate. Nat Immunol 10, 1065-72 (2009) and Chiu, Y. H., Macmillan, J. B. & Chen, Z. J. RNA polymerase III detects cytosolic DNA and induces type I interferons through the RIG-I pathway. Cell 138, 576-91 (2009), content of both of which is herein incorporated by reference."}, "virus": {"system": "virus", "experiment": "Virus replication", "format": "cell-based"}, "patients": {"system": "patients", "conditions": "huachansu, Meng et al.; cited from earlier work"}}}
{"smiles": "C[C@]12CC[C@H](O)C[C@H]1CC[C@@H]1[C@H]2CC[C@]2(C)[C@@H](c3ccc(=O)oc3)CC[C@]12O", "note": "[Bufalin]", "values": [{"measurement": "inhibition of IFNβ expression", "setting": "IFNβ promoter [1]; 1 uM", "value": "more than 90%"}, {"measurement": "Inhibition % @ 10 μM of virus induced IFNβ expression", "setting": "IFNβ promoter [1]; 10 μM, chemical library screen", "value": 99.2, "unit": "%"}, {"measurement": "IFN expression in the absence of virus infection", "setting": "IFNβ promoter [1]; 1 and 10 uM, no virus", "value": "weakly induced"}, {"measurement": "IC50", "setting": "IFNβ promoter [1]; Homo sapiens, HEK-293T, read-out: IC50 for inhibition of virus induced IFNβ expression", "value": 4.3, "unit": "nM"}, {"measurement": "repression of viral induction of luciferase expression, PRDIII/I reporter", "setting": "[2]", "value": "> 86", "unit": "%"}, {"measurement": "repression of viral induction of luciferase expression, PRDII reporter", "setting": "[3]", "value": "> 86", "unit": "%"}, {"measurement": "activity of PRDIV reporter", "setting": "[4]", "value": "weakly induced"}, {"measurement": "IFNβ induction in cells preinfected with virus", "setting": "[5]; SeV 1.5 hours, then 1 μM for 6 hours", "value": "strongly inhibits"}, {"measurement": "induction of virus-induced genes (IFNβ, IL-8, IFIT1-3, ISG15, OASL, CXCL10, CCL5)", "setting": "[5]; bufalin plus SeV, 8 hrs", "value": "completely blocked"}, {"measurement": "virus-induced IFNβ gene expression in Namalwa cells", "setting": "Namalwa cells", "value": "Strong inhibition"}, {"measurement": "poly I:C and poly dA:dT induced IFNβ expression in Hela and Mg63 cells", "setting": "Hela and MG63 cells", "value": "strongly inhibited"}, {"measurement": "virus induced IFNβ expression in Hela and MG63 cells", "setting": "Hela and MG63 cells", "value": "less than observed with 293T and Namalwa cells"}, {"measurement": "IFNβ reporter induction by MAVS over-expression", "setting": "IFNβ promoter [6]", "value": "no effect"}, {"measurement": "IFNβ reporter induction by TBK1 over-expression", "setting": "IFNβ promoter [6]", "value": "little effect"}, {"measurement": "virus induction of the IFNβ reporter when RIG-I was over-expressed", "setting": "IFNβ promoter [6]", "value": "only slightly reduced"}, {"measurement": "induction of IFNβ gene by various inducers in MEFs", "setting": "MEFs", "value": "little effects"}, {"measurement": "decrease of TNF induced luciferase gene expression", "setting": "[7]", "value": 40, "unit": "%"}, {"measurement": "expression of endogenous TNF target genes", "setting": "[8]", "value": "significantly inhibited"}, {"measurement": "IFN induction of Stat1 and ISG15 genes", "setting": "IFN signaling", "value": "no effect"}, {"measurement": "IFN induced expression of Cxcl10 and RIG-I genes", "setting": "IFN signaling; IFN 1000 U/ml, 6 hours", "value": "weakly inhibited"}, {"measurement": "LPS induction of Il-8, TNF and IKBa", "setting": "LPS signaling", "value": "minimal"}, {"measurement": "LPS induced expression of Cxcl10 gene", "setting": "LPS signaling; LPS 20 ng/ml, 2 hours", "value": "impaired"}, {"measurement": "EGF induced phosphorylation of MAP kinase P42/p44", "setting": "MAP kinase P42/p44", "value": "no effect"}, {"measurement": "cell viability", "setting": "293T cells [9]", "value": "did not severely impair"}, {"measurement": "Percentile of Annexin V or 7-AAD positive populations", "setting": "293T cells [10]", "value": 1.95}, {"measurement": "cleavage products of PARP1 and Caspase3 (indication of apoptosis)", "setting": "293T cells [11]", "value": "not observed"}, {"measurement": "induction of LC3B-II (marker of autophagy)", "setting": "293T cells [11]; BFA 100 nM", "value": "not observed"}, {"measurement": "activity of cytoplasmic RNA polymerase III", "setting": "[12]", "value": "inhibited"}, {"measurement": "virus replication", "setting": "virus", "value": "inhibited"}, {"measurement": "well tolerated concentration of bufalin in patients", "setting": "patients", "value": "up to 9 nM"}]}
